The target of experiment [1] is T1, CXCR4 (Mus musculus, UniProt P70658). The settings on record: T-cells pre-incubated with 5 μg/ml AMD3100 for 30 min; 15 hours incubation.
Method: The CXCR4 receptor was blocked by pre-incubation of T-cells with 5 μg/ml AMD3100 (Sigma, St. Louis, Mo.) for 30 min at 37° C. as previously described (70). Trajectories of migration were determined for randomly selected T-cells using Metamorph software. Cell path tracking and mean chemotropic indices (MCI) as a measurement of directionality of movement towards or away from β-TC3 cells were calculated using MetaMorph and MatLab software as previously described where an MCI of +0.1 to −0.1 indicates chemokinesis, >+0.1 indicates chemotaxis and <−0.1 indicates fugetaxis (Moghe, P. V., et al. 1995 J Immunol Methods 180, 193-211; McCutcheon, M. (1946) Physiological Reviews 26, 319).
Experiment [2] deals with T1, CXCR4. The settings on record: OT-I preincubated with AMD3100 5 μg/ml; flat-bottom wells; SIINFEKL-pulsed targets; ±SEM.
Method: Cytotoxicity of OT-I CD8+ cells was measured in a standard ^51Cr-release assay in round-bottom, wells as previously described (Brainard, D. M, et al. 2004. J Virol 78:5184-5193). The assay was also modified and performed in flat-bottom wells in order to determine the effects of CTL migration on killing efficacy in the context of target cells expressing SDF-1 (Hahne, M., et al. 1996 Science 274:1363-1366). B16/OVA.MSCV or B16/OVA.SDF1-high target cells were labeled with 100 μCi of ^51CR per 10^6 cells for 1 hour at 37° C. […] 30 μl of supernatant were harvested, and the radioactivity was counted in a γ-radiation counter. Cytotoxicity was expressed either as percent of lysis or as Lytic Unit 30 (LU30) as previously described (Brainard, D. M., et al. 2004. J Virol 78:5184-5193, Bryant, J., et al. 1992. J Immunol Meth 146:91-103). ^51Cr release assays were also performed in flat-bottom cells after preincubation of OT-I CD8+ T cells with the CXCR4 antagonist AMD3100 at concentrations of 0.25 and 1 μg/ml (Hatse, S. 2002 FEBS LETT 527:255-262).
In experiment [3] the target is T1, CXCR4. Particulars: 48 hours. The method, then:
(§1) In some experiments, activated OT-I CD8+ T cells were also preincubated with the CXCR4 antagonist, AMD3100, at concentrations of 0.08 and 0.25 μg/ml (15 min at RT) in a 12-well plate at a density of 1×10^7 cells/well prior to adoptive transfer (Hatse, S., et al. 2002, FEBS Lett 527:255). Survival analysis was evaluated in mice after in vivo generation of a tumor-specific memory T cell compartment (Bathe, O. F., et al. 2001, J Immunol 167:4511). 21 days after adoptive transfer of 1×10^7 OT-I CD8+ T cells (in 500 μl of HBSS via tail vein injection), two groups of mice (4 or 6 per group) were challenged s.c. in the right flank with 2×10^5 B 16/OVA.SDF-1-high cells or B16/OVA.MSCV control cells in 200 μl of HBSS using a 27 G needle (Bathe, O. F., et al. 2001, J Immunol 167:4511). […] Detectable tumor was considered to be >5 mm^2. Mice were sacrificed when tumors reached 400 mm^2 in size.
Immunized mice and mice that received adoptive transfer of OT-I CD8+ T-cells were evaluated for T cell infiltration of tumors by immunohistochemistry. Animals were sacrificed and tumors excised with preservation of the capsule. Resected tumors were fixed in 10% neutral buffered formalin and embedded in paraffin. Serial 5 μm sections of tumors were stained with H & E or with polyclonal anti-CD3 Ab or isotype control Ab, followed by incubation with secondary HRP-labeled anti-rabbit Dako EnVision Ab (DakoCytomation). T-cell infiltration was quantified by counting four random 200× field powers of the turner sections, each […] in area.

In experiment [4] the target is T1, CXCR4. The settings on record: Matthys et al. 2001; cited from earlier work.
Experiment [5] deals with T1, CXCR4.
From the text: Pregnant females at day 15.5 of gestation were sacrificed by CO2 asphyxiation, and embryos were chilled on ice. Fetal thymuses were carefully removed under a dissecting microscope, taking care to keep the anatomically identifiable lobes joined together. Thymuses were placed in HBSS and kept on ice. Individual thymuses were gently transferred onto the surface of a polycarbonate membrane of a 6.5 mm transwell insert with a 3.3 μm pore size (Corning Incorporated Life Sciences Action, Mass.). DMEM (360 μl) supplemented with 2 mM glutamine, 100 U/ml penicillin, 100 μg/ml streptomycin, 2×10^5 M 2-mercaptoethanol, 0.1 mM non-essential amino acids, 10% HEPES, and 10% FBS (Sigma) was added to the lower chamber of the transwell. This amount of medium allowed the thymus to be at the interface of medium and air. The cultures were incubated at 37° C., in 5% CO2, and medium was replaced every 3 days. Thymic emigrants, were collected from each thymus by transferring each transwell insert containing one thymus onto to a new well 24 hours before harvesting emigrant present in the lower chamber for analysis. On the day of analysis, two thymuses were harvested, and emigrants were pooled from at least 4 thymic lobes from CXCR4^+/− CXCR4^−/− mice. For each time-point, CXCR4^+/− and CXCR4^−/− thymuses from one or two pregnant females bred at the same time were analyzed, aiming to minimize differences in the stage of maturation and total cell recovery. E15.5 WT (CXCR4^+/+) thymuses were obtained from fetuses from C57BL/16 mice breedings. […] FTOC from DPC 15.5 CXCR4+/− or CXCR4−/−embryos were also prepared as above, and AMD3100 (0.5 or 1 gg/ml; Sigma) was added to the lower chamber of day 14 FTOC.
Thymic lobes were harvested and transferred to a 4-ml round bottom polystyrene tube containing 0.4 mg/ml collagenase (from Clostridium histolyticum, type V, clostridiopeptidase A, SIGMA Chemicals), 10% FBS, EDTA0.2 mg/ml and 0.2 M phosphate. After 30 minutes incubation at 37° C., thymuses were disaggregated by gentle pipetting until no visible fragments remained. Cell suspensions were washed once in HBSS and 10% FBS to prevent further enzyme action. Cells were resuspended in PBS containing 0.1% bovine serum albumin and counted using a hemocytometer. After incubation for 30 minutes on ice with 0.5 gg of 2.4G2 antibody to block Fc binding, direct staining for three or four color analysis was performed. Cell suspensions were incubated for 15 minutes at 4° C. and then washed twice with staining buffer and analyzed using a FACSCalibur (BD Biosciences). Data analysis was performed with FlowJo software (Tree Star, Inc. Ashland, Oreg.). […] For annexin V and PI staining, an Annexin V-FITC Apoptosis Detection Kit I was used (BD Pharmingen). […] Mean log fluorescence intensity (MFI) values were obtained by subtracting the MFI of the isotype control from the MFI of the positively stained sample. To evaluate whether the differences between the peaks of cells were statistically significant with respect to controls, the Kolmogorov-Smirnov test for analysis of histograms was used.
Experiment [6] deals with T1, CXCR4. The settings on record: B16/OVA.MSCV vs B16/OVA.SDF-1-high tumor, OT-I T-cells incubated with AMD3100 0.08 and 0.25 μg/ml before adoptive transfer, MRI 24 hours, mean±SD, n=3. How it is done:
as §1

Experiment [7] deals with B16/OVA.MSCV tumors. Particulars: naïve mice, AMD3100 1.25 mg/kg s.c. twice a day from first day after challenge, average±SD. The method, then:
(§2) For in vitro growth, 5×10^5 tumor cells were seeded in T25 flasks (Becton Dickinson, Le Pont De Claix, France). Cultures were harvested daily for 3 consecutive days and viable cell yield determined. Tumorigenicity was determined by subcutaneous (s.c.) injection of 2×10^5 viable cells into the flank of mice in a total volume of 200 μl PBS using a 27 G needle. Tumor growth was also evaluated in naïve mice challenged with B16/OVA.MSCV or B16/OVA.SDF-1-high cells and injected twice a day s.c. with the CXCR4 antagonist. AMDS3100 (1.25 mg/kg s.c., Sigma). Tumor growth was measured every three or four days using a caliper. Tumor volume was recorded as the product of two orthogonal diameters (axb; a=longest diameter; b-orthogonal width) (Hanson, J. L., et al. 2000 Immunity 13:265-276). In immunization studies, mice were injected s.c. (at multiple sites) with 1×10^5 Irradiated (8568 cGy) B16/OVA.pc cells in a volume of 200 μl at d 0 and d 10. Fourteen days after immunization, mice were challenged s.c. in both flanks with 2×10^5 B16/OVA.MSCV B16/OVA.SDF-1 high cells, and tumor growth was measured as described above (Dranoff, G., et al. 1993 Proc Natl Acad Sci USA 90:3539-3543). In some experiments, mice were immunized with B16/OVA.SDF-1-high cells and then challenged with B16/OVA.SDF-1-high or B16/OVA.SDF-1-low cells. Mice were sacrificed when one or both tumors reached 200 mm^2 in volume.

Experiment [8] concerns B16/OVA.SDF-1-high tumors. Particulars: naïve mice, AMD3100 1.25 mg/kg s.c. twice a day, average±SD. How it is done: as §2
Experiment [9] has as its system Protein Kinase C. As to the kind of experiment: Microfluidic migration assay of neutrophils in linear IL-8 gradients (mean chemotropism index). The settings on record: 25 μM pretreatment; IL-8 gradient in which fugetaxis is predominant (600 nM to 1.2 μM); p=0.0001. Format: cell-based, Human. An excerpt: Human whole blood was obtained from healthy volunteers by venipuncture into tubes-containing sodium heparin (Becton Dickinson, San Jose, Calif.). Neutrophils were isolated by density gradient centrifugation and purified by hypotonic lysis, as previously described (Tager, A. M., et al. 1998. Am J Respir Cell Mol Biol 19:643-52).
The microfluidic linear gradient generators were fabricated in poly(dimethylsiloxane) (PMDS; Sylgard 184, Dow Corning, N.Y.), and gradient generation was verified with fluorescin isothiocyanate (FITC; Sigma-Aldrich), as previously described (Li Jeon, N., et al. 2002. Nat Biotechnol 20:826-30; Whitesides, G. M., et al. 2001. Annu Rev Biomed Eng 3:335-73), […]
Cell movement was tracked using MetaMorph 4.5 (Universal Imaging, Dowington, Pa.) object tracking application, which generated tables of Cartesian coordinate data for each cell. Tracking data was analyzed in Excel (Microsoft, USA) and MATLAB 13 (The Mathworks, Inc., Newton, Mass.) to determine angular frequencies, mean squared displacements, migration velocities, persistence times, random motility coefficients, and random walk path lengths. […] For each cell, the squared displacement R(t) was calculated at time interval t, R^2(t)=(x(t0+t)−x(t0))^2+(y(t0+t)−y(t0))^2, (1) where t0 is the time at the origin. […]

The test system of experiment [10] is Primary human neutrophils. As to the kind of experiment: Calcium flux in neutrophils in response to IL-8 (Fura-2). The settings on record: calibrated against 5 μM ionomycin. Format: cell-based. The method, then:
(§3) Calcium flux in neutrophils in response to IL-8 was measured as previously described (Mahon M. J., et al. 2004 J Biol Chem 279:23550-8). Briefly, isolated cells (˜10^7/ml) were transferred into a balanced salt solution (127 mM NaCl, 3.8 mM KCl, 1.2 mM KH2PO4, 1.2 mM CaCl2, 0.9 mM MgCl2, 5 mM glucose, and 10 mM HEPES, pH 7.4), incubated for 45 min at room temperature with 1.25 μM Fura-2 acetoxymethyl ester (Molecular Probes, Eugene, Oreg.), washed with the balanced salt solution, and unloaded for 15 min at room temperature. […] Calcium flux in response to indicated concentrations of IL-8 (Akahoshi T., et al. 1994 Lymphokine Cytokine Res 13:113-6) was measured by fluorescence of cells excited at 340 and 380 nm using a PTI Deltascan dual-wavelength fluorimeter (Photon Technologies Incorporated, Lawrenceville, N.J.), observed through a Nikon Diaphot 200 microscope (Melville, N.Y.) and Sensys charge-coupled device camera (Photometrics, Ltd., Tucson, Ariz.), and analyzed using the Poenie-Tsien ratio with Imagemaster 2 software (Photon Technologies Incorporated). Signaling responses to IL-8 at designated concentrations were calibrated against maximal calcium flux as determined by treatment with 5 μM ionomycin (Sigma). CXCR2 expression on neutrophils pre- and post-exposure to 120 nM, 1.2 μM and 2.4 μM IL-8 was determined using PE-labelled anti-CXCR2 IgGl antibody (R & D systems). […]
(In general: Calcium flux is commonly read through the fluorescence of an indicator in the cells.)

The test system of experiment [11] is CXCR2. As to the kind of experiment: CXCR2 staining of neutrophils following IL-8 exposure. It is filed as cell-based, Human. Particulars: single pulse of IL-8 at 12 nM, 120 nM, 1.2 μM and 2.4 μM; data not shown. The method, then: as §3
Setting [12] is: OT-I CD8+ T-cells incubated with 0.08 μg/ml AMD3100 before adoptive transfer.
Where [13] appears, read: OT-I CD8+ T-cells incubated with 0.25 μg/ml AMD3100 before adoptive transfer.

Like-named read-outs stand apart in the source and are kept apart here.

T1 sequence (P70658 whole entry): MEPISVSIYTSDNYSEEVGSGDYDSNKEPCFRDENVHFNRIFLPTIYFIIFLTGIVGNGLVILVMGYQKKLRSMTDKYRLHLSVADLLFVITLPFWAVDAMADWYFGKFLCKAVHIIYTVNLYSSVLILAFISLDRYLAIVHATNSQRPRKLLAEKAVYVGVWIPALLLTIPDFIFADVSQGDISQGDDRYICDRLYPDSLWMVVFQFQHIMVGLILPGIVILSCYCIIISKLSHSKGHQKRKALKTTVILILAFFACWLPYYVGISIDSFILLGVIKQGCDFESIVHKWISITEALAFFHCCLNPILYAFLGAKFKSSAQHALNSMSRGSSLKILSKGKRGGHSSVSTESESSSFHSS

In the case of `c1cc(CN2CCCNCCNCCCNCC2)ccc1CN1CCCNCCNCCCNCC1` [AMD3100], the “T-cell migration away from SDF-1 secreting MSCV.SDF-1 bright cells” value in [1] is “failed to migrate away from SDF-1 secreting cells”. Besides, the “LU30, killing of B16/OVA.SDF-1-high cells by OT-I CD8+ T-cells” value in experiment [2] is given as 77×10^6±15. In addition, the “CD3+ T-cell infiltration into B16/OVA.SDF-1-high tumors” value came out at 101±10.6 cells/mm^2 in experiment [3] (setting [12]) and 88.1±16.9 cells/mm^2 in experiment [3] (setting [13]). In addition, the “number of T-cells infiltrating B16/OVA.MSCV tumors” value in [3] (setting [12]) is given as 109±3.2 cells/mm^2; in [3] (setting [13]) it was 93±14.8 cells/mm^2. For the same molecule, the “intracellular Ca+ flux and chemotactic responses of murine splenocytes to SDF1” value in [4] is reported as “inhibit”. Besides, the “total number of cells in the thymus” value in experiment [5] (day 14 FTOC incubated 24 hours with 1 μg/ml AMD3100) is on record as 349±99.5 ×10^3/lobe. The “SP CD4 thymocytes emigrating from thymus” value in experiment [5] (day 14 FTOC, 24 hours with 1 μg/ml AMD3100, mean±SEM) is given as 1.1±0.15 ×10^3/love. Also, the “CD62L^high CD4 SP cells in the thymus vs untreated” value in experiment [5] (day 14 FTOC, 24 hours with 1 μg/ml AMD3100, p=0.017) is “retention of CD62L^high CD4 SP cells in the thymus”. For the same molecule, the “CD62L expression by SP CD8 thymocytes” value in experiment [5] (day 14 FTOC, 24 hours with 1 μg/ml AMD3100, p=0.56) is “not affected”. For the same molecule, the “total number of SP CD8 emigrants vs untreated FTOC” value in [5] (day 14 FTOC, 24 hours with 1 μg/ml AMD3100, p=0.93) is recorded as “did not differ”. Moreover, the “ratio of T2 fit value in the right and left tumors” value in experiment [6] is given as 1+0.12; in experiment [6] (listed as AM3100), 0.55±0.13. Moreover, the “average time to tumor growth to a size of 200 mm^2” value in [7] is 22 ± 2 days. In addition, in experiment [8], the “time for tumor growth to 200 mm^2” value came to 23.6 ± 2.08 days.

`CN(C)CCCn1cc(C2=C(c3c[nH]c4ccccc34)C(=O)NC2=O)c2ccccc21` [GF 109230X]: in [9], the “effect on neutrophil fugetaxis in IL-8 gradient” value is “selectively inhibited fugetaxis and converted a fugetactic response into a predominantly chemoattraction response”.

Consider “IL-8: human Interleukin-8 (72 amino acids; PeproTech), chemokine”, for which the “Peak calcium flux response (percentage of maximal calcium flux)” value in [10] (120 nM IL-8) was 48%+/−5.1; in [10] (1.20 μM IL-8) it was 83%+/−7.9. The “reduction of CXCR2 mean fluorescent intensity from baseline” value in [11] is reported as 2- to 3 fold.

These data come from patent US10406217B2, “Antifugetactic agents for the treatment of cancers” (The General Hospital Corporation, priority 2004, dated 2019).
